Common to all, as to experiment: biochemical
Common to all, as to set-up: In vitro kinase panel profiling, per cent remaining kinase activity at 10 uM

For one assay, the target named is T1, PKBα(h) (Homo sapiens, UniProt P31749).
T1 construct: gene AKT1
As to conditions: atp_concentration=155, read-out: % of control remaining. From the text:
(§1) We derisk potential for off-target activity by profiling the compound in a CEREP panel, a standard secondary pharmacology assessment, as well as a kinase panel to derisk a potential hinge-binding motif in our leads, and a PARP panel to derisk activity against human […]. Reassuringly, the compounds are selective, with the only off-targets being moderate human CHRM2 and KOR receptors activity associated with ASAP-0011198.

A further assay concerns the target T2, EphB4(h) (Homo sapiens, UniProt P54760).
T2 sequence (P54760 1-987): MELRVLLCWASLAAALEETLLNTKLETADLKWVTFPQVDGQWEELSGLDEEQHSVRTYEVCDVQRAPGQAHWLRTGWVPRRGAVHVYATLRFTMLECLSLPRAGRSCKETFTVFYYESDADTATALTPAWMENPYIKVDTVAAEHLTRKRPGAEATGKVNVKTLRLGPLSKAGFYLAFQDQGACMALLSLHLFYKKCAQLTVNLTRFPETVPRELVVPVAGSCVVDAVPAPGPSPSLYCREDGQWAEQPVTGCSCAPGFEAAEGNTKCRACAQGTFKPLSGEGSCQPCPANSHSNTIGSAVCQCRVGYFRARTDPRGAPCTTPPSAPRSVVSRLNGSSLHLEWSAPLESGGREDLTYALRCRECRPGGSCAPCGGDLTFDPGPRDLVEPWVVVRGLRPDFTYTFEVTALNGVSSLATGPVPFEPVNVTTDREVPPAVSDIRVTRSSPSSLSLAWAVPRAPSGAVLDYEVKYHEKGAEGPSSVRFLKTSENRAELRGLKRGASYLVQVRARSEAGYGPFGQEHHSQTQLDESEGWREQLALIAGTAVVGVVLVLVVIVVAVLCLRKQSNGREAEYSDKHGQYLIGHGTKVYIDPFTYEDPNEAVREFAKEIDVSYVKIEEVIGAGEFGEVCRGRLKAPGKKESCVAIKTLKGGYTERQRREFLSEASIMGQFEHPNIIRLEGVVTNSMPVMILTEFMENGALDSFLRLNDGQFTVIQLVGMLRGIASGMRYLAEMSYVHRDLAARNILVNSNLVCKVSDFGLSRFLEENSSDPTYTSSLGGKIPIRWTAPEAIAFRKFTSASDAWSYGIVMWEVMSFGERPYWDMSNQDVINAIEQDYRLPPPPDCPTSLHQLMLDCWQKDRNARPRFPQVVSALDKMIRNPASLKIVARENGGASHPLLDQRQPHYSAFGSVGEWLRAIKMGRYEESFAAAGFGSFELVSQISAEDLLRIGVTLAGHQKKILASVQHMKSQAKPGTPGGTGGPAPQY
As to conditions: atp_concentration=10, read-out: % of control remaining.
From the text: as §1

The target in a further assay is T3, AMPKα1(h) (Homo sapiens, UniProt Q13131).
T3 construct: gene PRKAA1
T3 sequence (Q13131 whole entry): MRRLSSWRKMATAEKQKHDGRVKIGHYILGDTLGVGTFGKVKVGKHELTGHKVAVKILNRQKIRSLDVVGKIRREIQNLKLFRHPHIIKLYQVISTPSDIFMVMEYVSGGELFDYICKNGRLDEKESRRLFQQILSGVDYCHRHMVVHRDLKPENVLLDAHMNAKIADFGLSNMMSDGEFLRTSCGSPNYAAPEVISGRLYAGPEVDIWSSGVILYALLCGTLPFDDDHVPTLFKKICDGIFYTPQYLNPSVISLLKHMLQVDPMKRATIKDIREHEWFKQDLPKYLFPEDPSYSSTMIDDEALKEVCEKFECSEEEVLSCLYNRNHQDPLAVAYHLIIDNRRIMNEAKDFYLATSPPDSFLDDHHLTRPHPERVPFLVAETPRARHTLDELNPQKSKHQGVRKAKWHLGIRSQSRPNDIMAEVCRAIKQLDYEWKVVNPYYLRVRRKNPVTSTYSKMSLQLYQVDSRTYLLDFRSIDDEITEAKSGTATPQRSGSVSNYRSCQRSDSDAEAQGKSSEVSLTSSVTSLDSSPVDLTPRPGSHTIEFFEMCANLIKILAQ
T3 sequence (P54619 whole entry partner): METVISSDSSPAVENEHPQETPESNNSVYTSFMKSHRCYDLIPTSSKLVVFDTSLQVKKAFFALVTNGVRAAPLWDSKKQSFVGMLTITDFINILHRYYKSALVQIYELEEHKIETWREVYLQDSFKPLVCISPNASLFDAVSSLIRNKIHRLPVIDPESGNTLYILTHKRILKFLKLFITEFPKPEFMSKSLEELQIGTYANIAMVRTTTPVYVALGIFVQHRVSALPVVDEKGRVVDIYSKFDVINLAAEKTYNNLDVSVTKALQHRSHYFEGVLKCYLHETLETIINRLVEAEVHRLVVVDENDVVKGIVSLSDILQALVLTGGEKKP
T3 sequence (Q9Y478 whole entry partner): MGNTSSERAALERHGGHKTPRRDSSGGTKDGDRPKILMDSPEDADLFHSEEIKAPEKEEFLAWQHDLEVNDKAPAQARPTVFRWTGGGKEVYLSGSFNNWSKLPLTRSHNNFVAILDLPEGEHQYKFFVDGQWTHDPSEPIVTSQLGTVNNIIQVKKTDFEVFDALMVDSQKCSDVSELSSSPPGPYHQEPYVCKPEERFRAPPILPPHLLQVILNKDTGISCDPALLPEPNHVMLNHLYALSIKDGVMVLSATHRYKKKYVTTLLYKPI
The settings on record: atp_concentration=45, read-out: % of control remaining.
From the text: as §1

The target in a further assay is T4, Rsk1(h) (Homo sapiens, UniProt Q15418).
T4 construct: gene RPS6KA1
T4 sequence (Q15418 whole entry): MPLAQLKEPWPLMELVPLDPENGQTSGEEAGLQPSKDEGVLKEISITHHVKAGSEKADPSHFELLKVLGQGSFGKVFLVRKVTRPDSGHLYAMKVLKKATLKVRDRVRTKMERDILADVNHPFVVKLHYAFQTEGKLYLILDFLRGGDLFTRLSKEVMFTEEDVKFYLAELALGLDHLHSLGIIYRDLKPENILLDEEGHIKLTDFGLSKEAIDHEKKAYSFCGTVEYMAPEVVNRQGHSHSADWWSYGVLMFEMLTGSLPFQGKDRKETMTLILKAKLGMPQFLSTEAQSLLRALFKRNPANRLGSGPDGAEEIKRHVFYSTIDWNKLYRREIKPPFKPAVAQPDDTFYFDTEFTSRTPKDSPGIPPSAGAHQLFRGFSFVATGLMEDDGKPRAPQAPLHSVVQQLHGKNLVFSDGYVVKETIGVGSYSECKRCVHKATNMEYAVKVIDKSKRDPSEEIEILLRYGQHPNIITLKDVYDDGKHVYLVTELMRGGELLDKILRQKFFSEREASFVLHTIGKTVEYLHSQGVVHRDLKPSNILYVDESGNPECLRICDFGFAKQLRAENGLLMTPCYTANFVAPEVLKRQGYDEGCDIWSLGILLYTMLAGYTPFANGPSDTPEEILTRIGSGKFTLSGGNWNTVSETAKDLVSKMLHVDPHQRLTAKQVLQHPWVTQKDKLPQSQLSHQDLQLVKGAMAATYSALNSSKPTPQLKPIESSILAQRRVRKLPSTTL
The settings on record: atp_concentration=45, read-out: % of control remaining.
From the text: as §1

In a further assay the target is ALK(h) (Homo sapiens, UniProt Q9UM73). The settings on record: atp_concentration=200, read-out: % of control remaining.
ALK(h), sequence (Q9UM73 whole entry): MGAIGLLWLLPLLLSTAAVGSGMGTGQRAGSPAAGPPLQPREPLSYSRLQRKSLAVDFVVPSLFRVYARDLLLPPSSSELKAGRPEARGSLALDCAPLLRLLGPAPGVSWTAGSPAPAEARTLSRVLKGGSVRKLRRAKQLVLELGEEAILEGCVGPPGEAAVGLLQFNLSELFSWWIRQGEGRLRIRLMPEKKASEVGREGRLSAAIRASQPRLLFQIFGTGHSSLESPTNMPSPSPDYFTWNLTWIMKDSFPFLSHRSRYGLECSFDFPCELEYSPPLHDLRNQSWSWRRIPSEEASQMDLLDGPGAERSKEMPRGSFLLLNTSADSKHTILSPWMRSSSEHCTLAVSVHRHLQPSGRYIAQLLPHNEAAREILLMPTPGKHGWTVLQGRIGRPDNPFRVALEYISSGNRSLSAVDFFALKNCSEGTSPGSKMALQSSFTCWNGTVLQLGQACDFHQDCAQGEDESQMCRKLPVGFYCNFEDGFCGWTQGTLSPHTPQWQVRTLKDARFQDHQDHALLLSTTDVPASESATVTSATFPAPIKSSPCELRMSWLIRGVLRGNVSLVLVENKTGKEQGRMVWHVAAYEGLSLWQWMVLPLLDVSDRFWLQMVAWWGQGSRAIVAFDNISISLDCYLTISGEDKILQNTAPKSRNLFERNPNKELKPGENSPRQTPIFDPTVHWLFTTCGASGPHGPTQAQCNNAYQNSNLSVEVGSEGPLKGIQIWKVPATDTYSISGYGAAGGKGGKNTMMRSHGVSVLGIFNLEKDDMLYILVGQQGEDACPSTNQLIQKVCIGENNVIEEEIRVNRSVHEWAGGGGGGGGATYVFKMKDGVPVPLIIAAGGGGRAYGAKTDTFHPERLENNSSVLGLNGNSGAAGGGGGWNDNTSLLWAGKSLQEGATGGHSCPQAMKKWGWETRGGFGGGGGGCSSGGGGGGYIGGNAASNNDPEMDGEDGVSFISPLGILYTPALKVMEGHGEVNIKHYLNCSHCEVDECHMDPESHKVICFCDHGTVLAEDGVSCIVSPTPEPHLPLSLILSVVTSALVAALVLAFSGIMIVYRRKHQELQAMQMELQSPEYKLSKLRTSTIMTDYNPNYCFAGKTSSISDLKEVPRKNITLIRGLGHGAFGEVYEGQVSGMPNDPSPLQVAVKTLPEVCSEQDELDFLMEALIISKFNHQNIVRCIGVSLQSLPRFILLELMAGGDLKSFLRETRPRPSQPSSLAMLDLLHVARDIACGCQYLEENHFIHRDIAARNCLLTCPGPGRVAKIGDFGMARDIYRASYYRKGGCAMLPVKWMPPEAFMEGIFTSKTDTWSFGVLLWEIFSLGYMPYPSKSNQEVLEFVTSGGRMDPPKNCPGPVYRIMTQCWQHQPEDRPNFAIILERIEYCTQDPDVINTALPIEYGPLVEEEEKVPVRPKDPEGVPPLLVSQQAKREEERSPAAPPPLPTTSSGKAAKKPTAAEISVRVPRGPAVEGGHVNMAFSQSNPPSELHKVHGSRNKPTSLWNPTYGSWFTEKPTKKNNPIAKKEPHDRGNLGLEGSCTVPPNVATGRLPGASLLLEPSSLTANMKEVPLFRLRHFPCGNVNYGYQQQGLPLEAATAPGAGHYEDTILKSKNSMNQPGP
From the text: as §1

The next assay deals with T5, PKG1α(h) (Homo sapiens, UniProt Q13976).
T5 construct: gene PRKG1; isoform alpha
T5 sequence (Q13976 1-671): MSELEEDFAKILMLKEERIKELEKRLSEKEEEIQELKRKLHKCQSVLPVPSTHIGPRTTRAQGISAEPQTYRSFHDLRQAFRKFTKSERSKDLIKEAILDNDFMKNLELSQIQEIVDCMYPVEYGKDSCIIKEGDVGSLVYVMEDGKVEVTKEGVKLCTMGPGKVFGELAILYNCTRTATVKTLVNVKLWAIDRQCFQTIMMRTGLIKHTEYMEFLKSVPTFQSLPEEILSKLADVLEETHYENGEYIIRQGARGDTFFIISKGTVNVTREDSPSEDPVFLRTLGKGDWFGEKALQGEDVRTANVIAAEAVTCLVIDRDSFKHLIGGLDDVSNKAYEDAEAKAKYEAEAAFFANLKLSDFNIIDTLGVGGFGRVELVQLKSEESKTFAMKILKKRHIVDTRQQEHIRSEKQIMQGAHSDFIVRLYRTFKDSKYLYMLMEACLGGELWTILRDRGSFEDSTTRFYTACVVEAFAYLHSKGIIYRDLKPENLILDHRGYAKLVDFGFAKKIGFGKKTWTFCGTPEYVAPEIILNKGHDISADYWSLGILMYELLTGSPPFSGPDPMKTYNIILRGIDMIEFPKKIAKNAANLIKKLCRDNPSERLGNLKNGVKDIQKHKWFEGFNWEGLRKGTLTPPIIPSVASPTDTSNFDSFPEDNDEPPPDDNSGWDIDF
The settings on record: atp_concentration=90, read-out: % of control remaining.
From the text: as §1

Where two headings read alike, the source gives them in different places.

T1 sequence (P31749 whole entry): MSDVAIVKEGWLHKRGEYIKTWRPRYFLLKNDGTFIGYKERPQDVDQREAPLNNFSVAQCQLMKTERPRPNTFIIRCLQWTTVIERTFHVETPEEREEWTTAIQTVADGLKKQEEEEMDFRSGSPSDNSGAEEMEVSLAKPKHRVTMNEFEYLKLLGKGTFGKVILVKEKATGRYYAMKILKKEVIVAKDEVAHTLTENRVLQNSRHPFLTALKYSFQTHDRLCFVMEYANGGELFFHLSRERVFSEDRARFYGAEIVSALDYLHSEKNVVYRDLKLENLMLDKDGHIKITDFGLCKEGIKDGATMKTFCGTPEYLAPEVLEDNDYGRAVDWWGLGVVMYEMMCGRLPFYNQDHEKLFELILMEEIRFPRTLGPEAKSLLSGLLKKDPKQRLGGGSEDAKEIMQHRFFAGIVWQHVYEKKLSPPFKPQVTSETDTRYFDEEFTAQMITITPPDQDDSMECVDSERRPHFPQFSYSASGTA

As for `Cc1nn(C)cc1-c1cc2c(NC(c3ccc4c(c3)S(=O)(=O)CCC4)C(C)C)ncnc2[nH]1` (stereo not drawn) [ASAP-0011446], the remaining activity at 10 µM on PKBα(h) (batch_name=ASAP-0011446-002) amounted to 91%; at EphB4(h) (batch_name=ASAP-0011446-002), 98%; at AMPKα1(h) (batch_name=ASAP-0011446-002), 102%; on Rsk1(h) (batch_name=ASAP-0011446-002), 110%; on ALK(h) (batch_name=ASAP-0011446-002) it was 99%; at PKG1α(h) (batch_name=ASAP-0011446-002), 128%.
Take `C[C@H](C(=O)O)[C@@H](NC(=O)c1ncnc2[nH]ccc12)c1ccc(Br)cc1` [ASAP-0014722]: the remaining activity at 10 µM on PKBα(h) (batch_name=ASAP-0014722-002) came out at 95%; on EphB4(h) (batch_name=ASAP-0014722-002) it was 105%; at AMPKα1(h) (batch_name=ASAP-0014722-002), 93%; at Rsk1(h) (batch_name=ASAP-0014722-002), 88%; on ALK(h) (batch_name=ASAP-0014722-002), 99%; at PKG1α(h) (batch_name=ASAP-0014722-002) it was 118%.
As for `COc1ccc([C@H](Cc2nnn[nH]2)NC(=O)c2ncnc3[nH]ccc23)cc1` [ASAP-0015381], the remaining activity at 10 µM is 97% on PKBα(h) (batch_name=ASAP-0015381-001); 106% at EphB4(h) (batch_name=ASAP-0015381-001); 97% on AMPKα1(h) (batch_name=ASAP-0015381-001); 102% at Rsk1(h) (batch_name=ASAP-0015381-001); 106% on ALK(h) (batch_name=ASAP-0015381-001); 121% at PKG1α(h) (batch_name=ASAP-0015381-001).

Source of the values: paper doi:10.1101/2024.08.19.608619, “Discovery of potent SARS-CoV-2 nsp3 macrodomain inhibitors uncovers lack of translation to cellular antiviral response” (bioRxiv, 2024).
